Laboratory results published in patent US20210300940A1 (Merck Patent GmbH, priority 2018, published 2021).

Tests used:
TLR7 = biological target: T1, TLR7 (Homo sapiens, UniProt Q9NYK1); experiment: HEK/293 TLR7 Cell Assay; type: cell-based; conditions: TLR7/NFKb HEK cells, R848 agonist 10 uM final concentration, Steady-Glo readout; read-out: TLR7 potency
T1 construct: expressed in transfected cells; host or cells: HEK/293 cells carrying TLR7 and an NF-kB luciferase reporter
T1 sequence (Q9NYK1 27-1049): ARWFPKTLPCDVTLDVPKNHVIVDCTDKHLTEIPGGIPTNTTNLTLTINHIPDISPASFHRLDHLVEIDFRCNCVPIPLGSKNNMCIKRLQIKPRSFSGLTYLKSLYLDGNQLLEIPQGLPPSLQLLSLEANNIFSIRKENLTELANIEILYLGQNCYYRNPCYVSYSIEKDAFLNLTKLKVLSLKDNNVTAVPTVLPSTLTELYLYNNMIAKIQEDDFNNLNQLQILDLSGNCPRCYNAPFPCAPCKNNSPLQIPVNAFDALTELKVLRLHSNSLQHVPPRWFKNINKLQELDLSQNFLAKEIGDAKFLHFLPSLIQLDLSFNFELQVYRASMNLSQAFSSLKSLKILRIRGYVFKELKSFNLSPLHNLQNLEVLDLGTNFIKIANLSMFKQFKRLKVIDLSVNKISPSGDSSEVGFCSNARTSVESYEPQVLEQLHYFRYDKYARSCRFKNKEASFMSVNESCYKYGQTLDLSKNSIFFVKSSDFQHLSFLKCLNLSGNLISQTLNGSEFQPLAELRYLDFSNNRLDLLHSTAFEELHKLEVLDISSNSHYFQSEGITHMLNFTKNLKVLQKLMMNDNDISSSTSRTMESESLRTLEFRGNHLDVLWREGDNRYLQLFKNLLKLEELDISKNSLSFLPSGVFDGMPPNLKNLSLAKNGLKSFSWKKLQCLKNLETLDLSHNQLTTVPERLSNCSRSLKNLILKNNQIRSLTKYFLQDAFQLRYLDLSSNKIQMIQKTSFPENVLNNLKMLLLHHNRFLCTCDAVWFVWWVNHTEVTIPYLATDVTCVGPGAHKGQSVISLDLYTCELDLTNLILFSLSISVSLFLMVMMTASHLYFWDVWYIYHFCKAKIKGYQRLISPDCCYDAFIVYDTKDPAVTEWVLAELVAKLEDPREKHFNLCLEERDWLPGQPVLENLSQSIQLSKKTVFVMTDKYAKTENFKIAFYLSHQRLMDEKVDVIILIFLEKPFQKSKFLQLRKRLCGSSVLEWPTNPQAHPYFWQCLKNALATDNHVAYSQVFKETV
How it was run: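 TLR7/NF-κB reporter HEK293 cells, 5000/well, cultured 24 h, then preincubated 30 min with compound before R848 agonist (10 uM final). After 5 h stimulation, Steady-Glo luciferase luminescence read.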

TLR8 = biological target: T2, TLR8 (Homo sapiens, UniProt Q9NR97); experiment: HEK/293 TLR8 Cell Assay; type: cell-based; conditions: HEK cells, R848 agonist 30 uM final concentration, Steady-Glo readout; read-out: TLR8 potency
T2 construct: expressed in transfected cells; host or cells: HEK/293 reporter cells (NF-kB luciferase)
T2 sequence (Q9NR97 27-1041): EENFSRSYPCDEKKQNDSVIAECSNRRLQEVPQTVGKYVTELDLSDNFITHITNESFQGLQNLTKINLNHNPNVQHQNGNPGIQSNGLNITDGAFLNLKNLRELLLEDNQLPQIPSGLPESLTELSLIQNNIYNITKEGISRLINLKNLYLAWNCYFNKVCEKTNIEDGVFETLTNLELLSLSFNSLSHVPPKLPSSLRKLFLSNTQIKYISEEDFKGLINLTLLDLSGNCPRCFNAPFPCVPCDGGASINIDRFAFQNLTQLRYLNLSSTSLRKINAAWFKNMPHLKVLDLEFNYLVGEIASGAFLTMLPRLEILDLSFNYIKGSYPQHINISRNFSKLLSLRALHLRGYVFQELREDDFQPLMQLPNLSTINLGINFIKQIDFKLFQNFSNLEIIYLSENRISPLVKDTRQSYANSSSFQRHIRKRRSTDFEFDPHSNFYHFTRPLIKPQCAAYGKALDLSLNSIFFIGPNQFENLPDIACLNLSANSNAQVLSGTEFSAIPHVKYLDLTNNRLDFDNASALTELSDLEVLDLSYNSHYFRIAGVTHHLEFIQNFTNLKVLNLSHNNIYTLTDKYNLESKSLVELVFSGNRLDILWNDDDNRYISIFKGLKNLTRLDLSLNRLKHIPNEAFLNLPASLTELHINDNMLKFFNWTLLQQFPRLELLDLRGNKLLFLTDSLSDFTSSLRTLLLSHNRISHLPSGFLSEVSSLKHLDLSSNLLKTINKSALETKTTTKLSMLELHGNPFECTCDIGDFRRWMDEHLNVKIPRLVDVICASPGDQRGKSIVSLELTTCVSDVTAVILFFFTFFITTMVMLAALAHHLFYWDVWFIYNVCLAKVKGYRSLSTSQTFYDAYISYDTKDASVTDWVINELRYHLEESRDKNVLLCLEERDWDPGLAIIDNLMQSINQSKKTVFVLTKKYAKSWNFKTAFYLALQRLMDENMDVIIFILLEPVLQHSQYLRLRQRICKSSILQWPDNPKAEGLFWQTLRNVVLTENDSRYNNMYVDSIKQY

Row | SMILES | IC50 (TLR7) [nM] | IC50 (TLR8) [nM]
1 | Cc1ncc(N2C[C@@H](C)C[C@@H](NC(=O)CC3(N)CC3)C2)c2cccnc12 [Example 121, 2-(1-aminocyclopropyl)-N-[(3R,5S)-5-methyl-1-(8-methyl-1,7-naphthyridin-5-yl)piperidin-3-yl]acetamide] | 75 to 150 | < 75
2 | C[C@@H]1CN(c2cnc(C#N)c3ncccc23)C[C@H](C(=O)NC[C@@H]2CN(C)CCO2)O1 [Example 275, (2R,6R)-4-(8-Cyano-[1,7]naphthyridin-5-yl)-6-methyl-morpholine-2-carboxylic acid ((R)-4-methyl-morpholin-2-ylmethyl)-amide] | < 75 | < 75
3 | C[C@H]1C[C@@H](n2cccn2)CN(c2ccc(C(F)(F)F)c3nccnc23)C1 (racemic) [Example 155, 5-[cis-3-methyl-5-(1H-pyrazol-1-yl)piperidin-1-yl]-8-(trifluoromethyl)quinoxaline] | > 150 | > 150
4 | N#Cc1ccc(N2C[C@H](NC(=O)C3CCCCN3)C[C@H](C(F)(F)F)C2)c2cccnc12 (stereo partly drawn) [Example 183, Piperidine-2-carboxylic acid [(3R,5S)-1-(8-cyano-quinolin-5-yl)-5-trifluoromethyl-piperidin-3-yl]-amide] | 75 to 150 | 75 to 150
5 | CC(C(=O)N[C@@H]1C[C@H](C)CN(c2ccc(C#N)c3nccnc23)C1)N1CCC(O)CC1 (single isomer, unassigned) [Example 102] | < 75 | < 75
6 | C[C@@H]1CN(c2ccc(C#N)c3nccnc23)C[C@H](CNC(=O)[C@@H](C)O)O1 (single isomer, unassigned) [Example 340] | > 150 | < 75
7 | N#Cc1ccc(N2C[C@H](N)CC(F)(F)C2)c2cccnc12 (single isomer, unassigned) [Example 198] | > 150 | > 150
8 | C[C@@H](C(=O)N[C@@H]1C[C@H](C(F)(F)F)CN(c2ccc(C(F)(F)F)c3ncccc23)C1)N1CCN(C)CC1 (single isomer, unassigned) [Example 95] | < 75 | < 75
9 | CN(C)CCC(=O)N[C@@H]1C[C@H](C(F)(F)F)CN(c2ccc(C#N)c3nccnc23)C1 [Example 75] | < 75 | < 75
10 | C[C@@H]1CN(c2ccc(C#N)c3ncncc23)C[C@H](CNC(=O)[C@]2(F)CCNC2)O1 (single isomer, unassigned) [Example 345] | < 75 | < 75
11 | N#Cc1ccc(N2C[C@H](NC(=O)[C@@H]3CCCN3)C[C@H](C(F)(F)F)C2)c2nccnc12 [Example 124, (2S)—N-[(3R,5S)-1-(8-cyanoquinoxalin-5-yl)-5-(trifluoromethyl)piperidin-3-yl]pyrrolidine-2-carboxamide] | < 75 | < 75
12 | CN1CCC(O)(CC(=O)N[C@@H]2C[C@H](C(F)(F)F)CN(c3ccc(C(F)(F)F)c4nccnc34)C2)CC1 [Example 63, 2-(4-hydroxy-1-methylpiperidin-4-yl)-N-[(3R,5S)-5-(trifluoromethyl)-1-[8-(trifluoromethyl)quinoxalin-5-yl]piperidin-3-yl]acetamide] | < 75 | < 75
13 | CC(=O)NCCN[C@@H]1C[C@H](C)CN(c2ccc(C#N)c3nccnc23)C1 [Example 49, N-{2-[(3R,5S)-1-(8-Cyano-quinoxalin-5-yl)-5-methyl-piperidin-3-ylamino]-ethyl}-acetamide] | < 75 | < 75
14 | C[C@@H]1CN(c2ccc(C#N)c3nccnc23)C[C@H](C(=O)NCC2(F)CCNC2)O1 (stereo partly drawn) [Example 292, (2R,6R)-4-(8-Cyano-quinoxalin-5-yl)-6-methyl-morpholine-2-carboxylic acid (3-fluoro-pyrrolidin-3-ylmethyl)-amide] | < 75 | < 75
15 | C[C@@H]1CN(c2ccc(C#N)c3nccnc23)C[C@H](C(=O)NC[C@H](O)CN(C)C)O1 (single isomer, unassigned) [Example 261] | < 75 | < 75
16 | C[C@@H]1CN(c2cnc(C#N)c3ncccc23)C[C@H](C(=O)NCC2(F)CNC2)O1 [Example 301, (2R,6R)-4-(8-Cyano-[1,7]naphthyridin-5-yl)-6-methyl-morpholine-2-carboxylic acid (3-fluoro-azetidin-3-ylmethyl)-amide] | < 75 | < 75
17 | C[C@@H]1CN(c2ccc(C#N)c3nccnc23)C[C@H](C(=O)NCC2CS(=O)(=O)C2)O1 [Example 258, (2R,6R)-4-(8-cyanoquinoxalin-5-yl)-N-[(1,1-dioxo-1λ^6-thietan-3-yl)methyl]-6-methylmorpholine-2-carboxamide] | < 75 | > 150

Further lines, results first:

Row | IC50 (TLR7) [nM] | IC50 (TLR8) [nM] | SMILES
18 | < 75 | < 75 | C[C@@H]1CN(c2cnc(C#N)c3ncccc23)C[C@H](CN2CCC(F)(CN)CC2)O1 [Example 370, 5-[(2S,6R)-2-(4-Aminomethyl-4-fluoro-piperidin-1-ylmethyl)-6-methyl-morpholin-4-yl]-[1,7]naphthyridine-8-carbonitrile]
19 | < 75 | < 75 | C[C@@H]1CN(c2cnc(C#N)c3ncccc23)C[C@H](CN2CCC(N)C(F)(F)C2)O1 (stereo partly drawn) [Example 369, 5-[(2S,6R)-2-(4-Amino-3,3-difluoro-piperidin-1-ylmethyl)-6-methyl-morpholin-4-yl]-[1,7]naphthyridine-8-carbonitrile]
20 | 75 to 150 | > 150 | C[C@@H]1CN(c2ccc(C#N)c3nccnc23)C[C@H](C(=O)N[C@@H](CO)C(=O)O)O1 [Example 321, (S)-2-{[(2R,6R)-4-(8-Cyano-quinoxalin-5-yl)-6-methyl-morpholine-2-carbonyl]-amino}-3-hydroxy-propionic acid]
21 | > 150 | < 75 | CCN1CCN(C[C@H]2CN(c3cnc(C#N)c4ncccc34)C[C@@H](C)O2)CC1 [Example 371, 5-[(2S,6R)-2-(4-Ethyl-piperazin-1-ylmethyl)-6-methyl-morpholin-4-yl]-naphthyridine-8-carbonitrile]
22 | < 75 | < 75 | CN1CC[C@@](F)(CNC(=O)[C@H]2CN(c3ccc(C#N)c4nccnc34)C[C@@H](C(F)(F)F)O2)C1 (single isomer, unassigned) [Example 355]
23 | < 75 | < 75 | CN1CCC(F)(CNC(=O)[C@@H]2CN(c3ccc(C#N)c4nccnc34)C[C@H](C(F)(F)F)O2)CC1 (single isomer, unassigned) [Example 360]
24 | < 75 | < 75 | CN1CC[C@@](F)(CNC(=O)[C@@H]2CN(c3ccc(C#N)c4nccnc34)C[C@H](C(F)(F)F)O2)C1 (single isomer, unassigned) [Example 356]
